Data reported in patent US20170051249A1, “MANIPULATION OF OVARIAN PRIMORDIAL FOLLICLES” (The Board of Trustees of the Leland Stanford junior …, priority 2009, published 2017).
pIC50: −log10 of the molar value.

How the values were obtained:
PTEN = PTEN (Homo sapiens, UniProt P60484); conditions: in vitro, known inhibitors; read-out: IC50 for inhibition of PTEN; cited from earlier work
[1] = system: dormant primordial follicles of neonatal ovaries; assay: Transient in vitro exposure of neonatal mouse ovaries to PTEN inhibitor, kidney capsule transplantation into ovariectomized FSH-treated hosts, histology (Examples 2 and 3); format: in vivo
Description: Ovaries fixed for at least 24 h are dehydrated, embedded in paraffin, and serially sectioned at 5 μm intervals. The sections are mounted on glass slides and stained with Mayers hematoxylin and eosin. Follicles are counted using the dissector and fractionator principles (see Mayhew et al. (1991) Exp Physiol 76:639-65). Every fifth section of each ovary is used for analysis. Follicle stages are determined based on the classification used by Flaws et al. (1997) Biol. Reprod. 57:1233-1237. Follicles are assessed blindly and confirmed by two investigators. Data is expressed as percentage of follicle per ovary.
Follicles are identified as healthy if they contained an intact oocyte, organized granulosa and thecal cell layers, and no pyknotic bodies. Follicles are considered atretic if they contain a degenerating oocyte, disorganized granulosa cells with pyknotic nuclei or apoptotic bodies. Follicles will be scored as “primordial” if they contain an intact oocyte with a visible nucleolus surrounded by a single layer of fusiform-shaped granulosa cells. Follicles are scored as “primary” if they consist of an intact, enlarged oocyte with a visible nucleolus and a single layer of cuboidal granulosa cells. Follicles are scored as preantral if they contain an oocyte with a visible nucleolus and more than one layer of granulosa or thecal cells. To obtain an estimate of the total number of follicles per ovary, the number of primordial, primary, and preantral follicles are multiplied by 5 to account for the fact that every fifth section was used for analyses. Statistical analysis of follicle number is performed using Sigmastat statistical software v.2 (Jandel Corporation, San Rafael, Calif., USA).
Transient incubation of neonatal ovaries in vitro with bpV(pic) may avoid the adverse side effects of the PTEN inhibitor in vivo to allow a tissue-specific action of the inhibitor. After treatment using the PTEN inhibitor, ovaries are transplanted into adult hosts. To facilitate follicle growth, adult recipients are ovariectomized to increase endogenous gonadotropin levels. […]

[2] = system: Foxo3 nuclear export in primordial oocytes; assay: Foxo3 nuclear export in primordial follicles of human ovarian cortical cubes; format: cell-based; conditions: 1 h treatment, 100 uM
Description: (§1) Informed consent from the patient and approval from the Human Subject Committee of Akita University were obtained. Ovarian cortex was isolated and cut into small cubes (˜1 mm^3). After treatment of cortical cubes for 1 h with bpV(pic), some samples were used for immunohistochemical staining for Foxo3. Some ovarian cubes were also cultured in MEM-a medium containing 10% human serum albumin (Mitsubishi Tanabe Pharma Corp, Osaka, Japan), 1% antibiotic/antimycotic solution (Invitrogen), and 0.3 IU/ml FSH. Pairs of cortical cubes were treated with bpV(pic) ([…]) or saline for 24 h before xeno-transplantation into each side of the kidney capsule of ovariectomized, immune-deficient SCID mice. An i.p. injection of antibiotic (4 μg/g body weight; gentamicin; Invitrogen) was given while animals were anesthetized by 2,2,2-tribromoethanol (0.4 mg/g body weight; avertin; Sigma). Three day after transplantation, animals were treated i.p. with FSH (1 IU/animal) every 48 h for 24 weeks. At 36 h before sample retrieval, hCG (20 IU/animal) was injected subcutaneously. Ovarian grafts were recovered for histological analyses and follicle counting.

[3] = system: human primordial follicles; assay: Human follicle activation: cortical cubes treated in vitro, xeno-transplanted into kidney capsule of ovariectomized SCID mice, follicle counting; format: in vivo
Description: as §1

PTP = conditions: read-out: IC50 as PTP inhibitor; cited from earlier work
[4] = antral follicles of four grafts, after hCG

PTEN, sequence (P60484 whole entry): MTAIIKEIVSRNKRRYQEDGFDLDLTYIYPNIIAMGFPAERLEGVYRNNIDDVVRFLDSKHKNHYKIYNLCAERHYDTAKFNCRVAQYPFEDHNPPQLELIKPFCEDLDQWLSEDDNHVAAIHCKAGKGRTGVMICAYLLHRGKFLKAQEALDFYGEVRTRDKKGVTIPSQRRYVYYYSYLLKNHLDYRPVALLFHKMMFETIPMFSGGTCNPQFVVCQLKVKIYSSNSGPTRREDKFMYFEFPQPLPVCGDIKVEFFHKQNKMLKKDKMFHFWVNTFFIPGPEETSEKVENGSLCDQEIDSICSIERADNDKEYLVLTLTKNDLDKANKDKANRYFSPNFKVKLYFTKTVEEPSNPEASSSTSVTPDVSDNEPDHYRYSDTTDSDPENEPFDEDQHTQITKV

OO.OO.[K+].[OH-].[V].c1cnc2c(c1)ccc1cccnc12 [potassium bisperoxo (1,10-phenanthroline)oxovanadate (V)]
pIC50 (PTEN): 7.42

potassium bisperoxo(bipyridine)oxovanadate (V)
pIC50 (PTEN): 7.74

dipotassium bisperoxo(5-hydroxypyridine-2-carboxyl)oxovanadate (V)
pIC50 (PTEN): 7.85

O.O.O=C([O-])c1ccccn1.OO.OO.[K+].[K+].[OH-].[V] [bpV(pic), dipotassium bisperoxo(picolinato)oxovanadate (V)]
ovarian size as compared with control ovaries ([1]; 100 μM for 24 h in vitro, twelve days after transplantation): clear increases in sizes
decrease of the percentage of primordial (Pmd) follicles as compared to controls ([1]; 250 uM for 6 h in vitro, day 3 Balb/c ovaries, transplanted, FSH 12 days, preliminary analysis, three pairs of ovaries): 60%
effect on follicle development and nuclear maturation of the preovulatory oocyte ([1]; 6 h in vitro exposure, 15 days after transplantation, hCG 8 h): did not cause detrimental effects
increase in nuclear exclusion of Foxo3 versus controls [2]: 2 fold
follicles that left the dormant primordial pool and developed into larger follicles ([3]; 24 h treatment (100 mM), after transplantation, FSH 24 weeks): 89%
graft size as compared with controls ([3]; 24 h treatment, 6 months after xeno-transplantation): major increases in graft sizes
increases in the number of secondary and antral follicles ([3]; 24 h treatment, after xeno-transplantation): ~4 fold
number of oocytes at GV stage [3, 4]: 5
number of oocytes at MI stage [3, 4]: 15
number of oocytes at MII stage [3, 4]: 12
number of antral follicles (>1 mm diameter) ([3]; in four ovarian grafts): 32
malignancy in xenografted human ovaries or hosts ([3]; six months of transplantation, short term exposure): No malignancy was found
increase in the number of antral follicles ([3]; versus paired control grafts): 4 fold
increase in the number of mature (MI & MII) oocytes ([3]; versus paired control grafts): 27 fold
pIC50 (PTEN): 7.51

monoperoxo(picolinato)oxovanadate(V)
pIC50 (PTP): 4.74
